Where “and” joins values, the source holds several entries; their conditions need not be identical. Equal values may be shown once. Where a name gives a salt, the structure may show the parent alone.
Assays:
[1] = molecular target: T1, SSAO (Homo sapiens, UniProt Q16853); test: Amplex Red fluorometric detection of benzylamine-induced hydrogen peroxide release in human adipose tissue homogenates; type: biochemical; settings: for effect on benzylamine-induced H2O2 release: tested agent at 1 mM, 1 mM benzylamine, hAT homogenates, Amplex Red
T1 construct: benzylamine oxidation by hAT preparations, naturally rich in SSAO/VAP-1; from tissue; host or cells: human subcutaneous abdominal adipose tissue (hAT), crude homogenate
T1 sequence (Q16853 1-763): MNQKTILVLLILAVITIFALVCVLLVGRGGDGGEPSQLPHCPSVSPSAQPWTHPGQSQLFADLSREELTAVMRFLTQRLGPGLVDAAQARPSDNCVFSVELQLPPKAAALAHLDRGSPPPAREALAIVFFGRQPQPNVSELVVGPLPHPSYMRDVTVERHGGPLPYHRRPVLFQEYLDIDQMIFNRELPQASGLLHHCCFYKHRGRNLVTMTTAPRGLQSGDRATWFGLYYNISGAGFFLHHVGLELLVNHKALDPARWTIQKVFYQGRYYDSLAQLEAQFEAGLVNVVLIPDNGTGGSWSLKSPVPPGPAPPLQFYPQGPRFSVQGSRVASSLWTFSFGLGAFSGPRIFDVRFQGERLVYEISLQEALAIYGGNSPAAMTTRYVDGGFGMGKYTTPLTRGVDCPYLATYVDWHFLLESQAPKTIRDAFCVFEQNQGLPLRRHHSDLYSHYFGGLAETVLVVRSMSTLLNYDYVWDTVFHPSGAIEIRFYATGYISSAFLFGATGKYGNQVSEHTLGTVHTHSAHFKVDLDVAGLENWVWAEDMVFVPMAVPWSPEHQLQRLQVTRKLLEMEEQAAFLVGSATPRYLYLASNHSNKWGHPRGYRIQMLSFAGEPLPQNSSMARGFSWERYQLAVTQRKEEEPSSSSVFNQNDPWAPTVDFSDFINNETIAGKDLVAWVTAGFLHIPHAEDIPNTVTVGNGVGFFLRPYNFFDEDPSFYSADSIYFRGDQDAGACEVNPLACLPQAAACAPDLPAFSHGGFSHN
Experimental: (§1) Oxidase activity was measured using the fluorescent probe Amplex Red (10-acetyl-3,7-dihydrophenoxazine) designed for the detection of hydrogen peroxide in biological milieu. Assays were performed accordingly to our previous descriptions, which corresponded to slight modifications from the adaptation of such fluorometric method for MAO activity determination. Briefly, hydrogen peroxide release was quantified owing to a chromogenic mixture containing 40 μM Amplex Red and 4 U/mL horseradish peroxidase and to the parallel use of hydrogen peroxide standard solutions ranging from 0.05 to 5 μM (final concentrations). Thawed hAT samples were homogenized in 200 mM phosphate buffer (pH 7.4) during 30 sec with a homogenizer Tissue Master-125 (Omni International, Kennesaw, GA, USA) just prior to the determination of their amine oxidase activity, as previously reported, except that no antiprotease cocktail was added. Homogenates were distributed in 96-well dark microplates (at 50 ± 5 μg protein/well) and incubated at 37°C in the dark for at least 30 min in 200 μL final volume after a 30 min preincubation without (control) or with 1 mM pargyline or semicarbazide to inhibit MAO or SSAO activity, respectively, or even with both reference inhibitors to abolish all AO activity. All phenolic compounds tested for their inhibitory properties were also added during this preincubation step. Tyramine or benzylamine was added to the medium in order to obtain 1 mM concentration and to serve as substrates for AO activities, as already stated.
(§2) Spontaneous hydrogen peroxide formation by homogenates of thawed material was also quantified without any addition of exogenous amine or inhibitor and defined as basal release. The influence of chemical compounds or biochemical agents on the fluorescence readouts generated by the hydrogen peroxide standard curve was also performed without any presence of hAT in a set of experiments called “without biological material.” In all cases, fluorescence data (ex/em: 540/590 nm) were collected on a Fluoroskan Ascent plate reader (ThermoLabsystems, Finland).
Fluorescence readouts after 30 min incubation were substracted from corresponding values at t0 and net increase was set at 100% for 1 mM benzylamine alone. (a) Pargyline (MAO, dark squares) or semicarbazide (SSAO inhibitor, open squares) was present at indicated final concentrations, while their combination was tested at 1 mM (P + S, black triangle). Mean ± SEM of at least 6 homogenates. (b) The phenolic compounds were tested in parallel at the indicated final concentrations. Means ± SEM of 8 to 12 homogenates.

[2] = Amplex Red-based fluorescence of 5 μM hydrogen peroxide without biological material; settings: read-out: EC50 for lowering the fluorescent signal elicited by 5 μM hydrogen peroxide; without any human biological material, Amplex Red chromogenic mixture
Experimental: as §2
Figure 4 Influence of amine oxidase substrates or inhibitors and phenolic compounds on fluorescent-based detection of hydrogen peroxide. The chromogenic mixture used for Amplex Red-based fluorometric detection of hydrogen peroxide was incubated with 5 μM H2O2 alone (control set at 100%) or in the presence of the indicated final concentrations of tested chemicals. […] Means ± SEM of 7 measurements without any human material.

[3] = tested on: MAO; test: Radiochemical assay of [14C]-tyramine oxidation by hAT homogenates; type: biochemical, human; settings: 1 mM [14C]-tyramine, 30 min
Experimental: (§3) Samples of adipose tissue were homogenized as described above. 50 μL of crude homogenates were then incubated for 30 min at 37°C in 200 μL of 200 mM phosphate buffer in the presence of radiolabelled amine after 30 min preincubation without or with inhibitor(s). MAO-dependent oxidation was defined as sensitive to inhibition by 1 mM pargyline, whereas SSAO-dependent oxidation was abolished by 1 mM semicarbazide. Assays were started by addition of the labelled substrate and stopped by adding 50 μL of 4 M HCl. Reaction products of amine oxidation were extracted by 1 mL of organic solvent (toluene/ethyl acetate, 1/1 v/v), according to Tipton's method. Then, 0.7 mL aliquots of the organic phase were counted for radioactivity. Maximal velocity and optimal conditions for determination of amine oxidase activities have been already detailed for human adipocytes, cultured preadipose cells, or hAT homogenates. Thus, inhibition studies were performed only under conditions reaching maximal oxidation velocity, that is, corresponding to the use of tyramine or benzylamine isotopic dilutions giving 1 mM final concentration and reaching approximately 640000 dpm/50 μL for [^14C]-tyramine (provided either by PerkinElmer, Evry, France, or by Sigma-Aldrich) or 200000 dpm/50 μL for [^14C]-benzylamine (NEC 835050UC purchased from PerkinElmer). The radioactivity extracted in the organic phase at time 0 (t0) represented less than 0.5% of the total radioactivity/tube of each labelled amine and was subtracted to all counts with tyramine and benzylamine oxidation without inhibitor averaging 14160 ± 5620 dpm (n = 16) and 15800 ± 1770 dpm (n = 12), respectively. These absolute values, which varied substantially from one individual to another, were set as 100% reference in each subject for the calculation of percentages of inhibition.
Figure 5 Influence of phenolic compounds and MAO inhibitors or SSAO inhibitors on tyramine oxidation by hAT. The production of radiolabelled aldehydes resulting from the 30 min incubation of fat tissue homogenates with 1 mM isotopic dilution of [^14C]-tyramine was set at 100% in the absence of added inhibitor, while the background radioactivity detected at t0 was set at 0%. (a) Inhibition by pargyline only of MAO-dependent tyramine oxidation. (b) Influence of phenolic compounds on tyramine oxidation. Each point is the mean ± SEM of 8 (inhibitors) to 12 (phenolic compounds) homogenates.

[4] = molecular target: T2, SSAO/VAP-1 (Homo sapiens, UniProt Q16853); test: Radiochemical assay of [14C]-benzylamine oxidation by hAT homogenates; type: biochemical; settings: 1 mM [14C]-benzylamine, 30 min, up to 1 mM
T2 construct: benzylamine oxidation by hAT preparations, naturally rich in SSAO/VAP-1; from tissue; host or cells: human subcutaneous abdominal adipose tissue (hAT), crude homogenate
T2 sequence (Q16853 1-763): T1 sequence (Q16853 1-763)
Experimental: as §3
Figure 6 Influence of phenolic compounds and MAO inhibitors or SSAO inhibitors on benzylamine oxidation by hAT. (a) Thirty-minute oxidation of 1 mM [^14C]-benzylamine by homogenates generated amounts of radiolabelled benzaldehyde that were separated by extraction as described in Materials and Methods and set at 100% signal (control), while 0% corresponded to the extractible radioactivity at t0. The reference MAO inhibitors (pargyline) or SSAO (semicarbazide) inhibitors were present, separately or in combination at 1 mM, […] before the addition of the radiolabelled substrate. […] Each point is the mean ± SEM of 8 homogenates.

[5] = tested on: human adipocytes; test: [3H]-2-deoxy-glucose uptake in freshly isolated adipocytes; type: cell-based; settings: phenolic compound 100 μM (P + S 1 mM each), benzylamine stimulation, 45 min incubation
Experimental: To determine glucose transport activity, hAT was grossly minced and digested at 37°C under shaking in 20 mL of Krebs-Ringer medium containing 0.015 mg/mL liberase (type TM, Roche Diagnostics), 15 mM sodium bicarbonate, 10 mM HEPES, and 3.5% bovine serum albumin. Buoyant adipocytes were separated by filtration through nylon screen and carefully washed in the same medium at pH 7.4 without liberase to obtain adipocyte suspensions as already described. Freshly isolated adipocytes were incubated for 45 min with the tested agents just before [^3H]-2-deoxy-glucose uptake assays (PerkinElmer) performed in 10 min at 37°C in plasticware as already described.
Figure 9 Effects of phenolic compounds, benzylamine, and insulin on glucose transport in human adipocytes. Freshly isolated adipocytes were incubated for 45 min without (basal) or with insulin 100 nM (ins.) or with benzylamine and phenolic compounds at the indicated doses. Then 2-DG uptake assays were performed on 10 min as detailed in Section 2. […] Basal, insulin-stimulated, or benzylamine-stimulated 2-DG uptake was tested without (no addition, open columns) or with pargyline + semicarbazide at 1 mM each (P + S, dark columns). Mean ± SEM of 39 cases. Different from basal alone at ^### P < 0.001. Different from benzylamine alone at ^∗∗∗ P < 0.001. (b) Insulin was used as the agent of reference for maximal transport stimulation, set at 100%. Benzylamine was tested at 1 mM alone (control, open column) or in the presence of 100 μM of the indicated phenolic compounds. Mean ± SEM of 7 observations. Different from benzylamine alone at ^∗ P < 0.05 and ^∗∗ P < 0.01.

[6] = tested on: MAO; test: Amplex Red fluorometric detection of tyramine-induced hydrogen peroxide release in human adipose tissue homogenates; type: biochemical; settings: for effect on tyramine-induced H2O2 release: 1 mM tyramine, hAT homogenates, Amplex Red, inhibitors 1 μM to 1 mM
Experimental: as §1, §2

[7] = tested on: MAO-A; parameters: method as in PMID 19013512; settings: at 10-100 μM, peroxidase-based detection of hydrogen peroxide; cited from earlier work

| SMILES | effect on benzylamine-induced H2O2 release [1] | EC50 [2] [µM] | effect on [14C]-tyramine oxidation [3] | effect on SSAO-mediated [14C]-benzylamine oxidation [4] | effect on benzylamine-stimulated deoxyglucose uptake [5] | other results |
| --- | --- | --- | --- | --- | --- | --- |
| NCc1ccccc1 [benzylamine, benzylamine hydrochloride] |  |  |  |  |  | effect on hydrogen peroxide production by hAT preparations ([1]; 1 mM benzylamine as substrate, 30 min, versus basal): significantly increased the amount of detected hydrogen peroxide |
| O=C(O)/C=C/c1ccc(O)c(O)c1 [caffeic acid] | abolished benzylamine-induced signal | 3.5 | did not abolish enzyme activity | without preventing benzylamine degradation | No clear-cut inhibition |  |
| C#CCN(C)Cc1ccccc1 [pargyline] | resistant |  | inhibited | could not prevent this type of amine metabolism |  | proportion of tyramine-induced H2O2 production left unaltered ([6]; 1 mM pargyline alone or with 1 mM semicarbazide, 1 mM tyramine = 100%): approximately 30%; effect on tyramine-induced H2O2 release [6]: inhibited dose-dependently |
| COc1cc(/C=C/c2ccc(O)cc2)cc(OC)c1 [pterostilbene] | impaired partially the benzylamine-induced signal | 5.2 | did not abolish enzyme activity | without preventing benzylamine degradation | counteracted the effect of 1 mM benzylamine |  |
| O=c1c(O)c(-c2ccc(O)c(O)c2)oc2cc(O)cc(O)c12 [quercetin] | impaired partially the benzylamine-induced signal | 2 |  | without preventing benzylamine degradation | counteracted the effect of 1 mM benzylamine | MAO-A inhibition, in words [7]: inhibit MAO-A in a complete manner |
| Oc1ccc(/C=C/c2cc(O)cc(O)c2)cc1 [resveratrol, trans-resveratrol] | abolished benzylamine-induced signal |  |  | without preventing benzylamine degradation | counteracted the effect of 1 mM benzylamine |  |
| NNC(N)=O [semicarbazide] | inhibited |  | virtually unable to abolish this activity | eradicated the generation of labelled benzaldehyde |  | effect on tyramine-induced H2O2 release [6]: totally inefficient; proportion of benzylamine-induced H2O2 signal left unaltered ([1]; 1 mM semicarbazide alone or with 1 mM pargyline, 1 mM benzylamine = 100%): 20% and 15–20% |
| NCCc1ccc(O)cc1 [tyramine, tyramine hydrochloride] |  |  |  |  |  | effect on hydrogen peroxide production by hAT preparations ([6]; 1 mM tyramine as substrate, 30 min, versus basal): to a lesser extent, significantly increased the amount of detected hydrogen peroxide |
